Literature values as cited in patent US20160074480A1, “INNOVATIVE METHODS OF TREATMENTING TUBERCULOSIS” (priority 2015, published 2016).

System: TB bacteria
Conditions: laboratory dishes, including strains resistant to available anti-tuberculosis drug; cited from earlier work

O=C1O[C@H]([C@@H](O)CO)C(O)=C1O [Vitamin C, L-ascorbic acid]
killing of TB bacteria: killed TB bacteria
